Reference: patent publication US10118935B2, “Melampomagnolide B dimers” (priority 2014, dated 2018)

What was measured:
TK-10 = assay: NCI 60 cell line five dose, Renal Cancer
KM12 = assay: NCI 60 cell line five dose, Colon Cancer
CCRF-CEM = assay: NCI 60 cell line five dose, Leukemia
UACC-62 = assay: NCI 60 cell line five dose, Melanoma
T-47D = assay: NCI 60 cell line five dose, Breast Cancer
A549/ATCC = assay: NCI 60 cell line five dose, Non-Small Cell Lung Cancer
MOLT-4 = assay: NCI 60 cell line five dose, Leukemia
HCT-116 = assay: NCI 60 cell line five dose, Colon Cancer
ACHN = assay: NCI 60 cell line five dose, Renal Cancer
OVCAR-8 = assay: NCI 60 cell line five dose, Ovarian Cancer
MDA-MB-231/ATCC = assay: NCI 60 cell line five dose, Breast Cancer
SF-539 = assay: NCI 60 cell line five dose, CNS Cancer
MDA-MB-435 = assay: NCI 60 cell line five dose, Melanoma
HS 578T = assay: NCI 60 cell line five dose, Breast Cancer; conditions: HS578T
SK-MEL-28 = assay: NCI 60 cell line five dose, Melanoma
HT29 = assay: NCI 60 cell line five dose, Colon Cancer
BT-549 = assay: NCI 60 cell line five dose, Breast Cancer
M14 = assay: NCI 60 cell line five dose, Melanoma
NCI-H226 = assay: NCI 60 cell line five dose, Non-Small Cell Lung Cancer
MDA-MB-468 = assay: NCI 60 cell line five dose, Breast Cancer
A498 = assay: NCI 60 cell line five dose, Renal Cancer
HCT-15 = assay: NCI 60 cell line five dose, Colon Cancer

C=C1C(=O)O[C@H]2[C@H]1CC/C(COC(=O)NCCCCCCCCNC(=O)OC/C1=C/CC[C@@]3(C)O[C@H]3[C@H]3OC(=O)C(=C)[C@@H]3CC1)=C\CC[C@@]1(C)O[C@@H]21 [JVM 3-62, bis(((1aR,7aS, 10aS, 10bS, E)-1a-Methyl-8-methylene-9-oxo-1a,2,3,6,7,7a,8,9,10a,10b-decahydrooxireno[2′,3′:9,10]cyclodeca[1,2-b]furan-5-yl)methyl)octane-1,8-diyldicarbamate]
Percent Growth (TK-10; Log10 Concentration −4.0): −99%
Percent Growth (TK-10; Log10 Concentration −5.0): −98%
Percent Growth (TK-10; Log10 Concentration −6.0): −7%
Percent Growth (TK-10; Log10 Concentration −7.0): 97%
Percent Growth (TK-10; Log10 Concentration −8.0): 92%
GI50 (TK-10; molar): 284 nM
TGI (TK-10; molar): 8.56E−7
CC50 (TK-10; read-out: LC50, molar): 2950 nM
Percent Growth (KM12; Log10 Concentration −4.0): −83%
Percent Growth (KM12; Log10 Concentration −5.0): −66%
Percent Growth (KM12; Log10 Concentration −6.0): 65%
Percent Growth (KM12; Log10 Concentration −7.0): 105%
Percent Growth (KM12; Log10 Concentration −8.0): 102%
GI50 (KM12; molar): 1290 nM
CC50 (KM12; read-out: LC50, molar): 7490 nM
Percent Growth (CCRF-CEM; Log10 Concentration −4.0): −44%
Percent Growth (CCRF-CEM; Log10 Concentration −5.0): −45%
Percent Growth (CCRF-CEM; Log10 Concentration −6.0): −8%
Percent Growth (CCRF-CEM; Log10 Concentration −7.0): 89%
Percent Growth (CCRF-CEM; Log10 Concentration −8.0): 99%
GI50 (CCRF-CEM; molar): 255 nM
CC50 (CCRF-CEM; read-out: LC50, molar): > 100000 nM
Percent Growth (UACC-62; Log10 Concentration −4.0): −77%
Percent Growth (UACC-62; Log10 Concentration −5.0): −84%
Percent Growth (UACC-62; Log10 Concentration −6.0): −39%
Percent Growth (UACC-62; Log10 Concentration −7.0): 87%
Percent Growth (UACC-62; Log10 Concentration −8.0): 96%
GI50 (UACC-62; molar): 197 nM
TGI (UACC-62; molar): 4.88E−7
CC50 (UACC-62; read-out: LC50, molar): 1720 nM
Percent Growth (T-47D; Log10 Concentration −4.0): −49%
Percent Growth (T-47D; Log10 Concentration −5.0): −46%
Percent Growth (T-47D; Log10 Concentration −6.0): −4%
Percent Growth (T-47D; Log10 Concentration −7.0): 100%
Percent Growth (T-47D; Log10 Concentration −8.0): 92%
GI50 (T-47D; molar): 323 nM
TGI (T-47D; molar): 9.15E−7
CC50 (T-47D; read-out: LC50, molar): > 100000 nM
Percent Growth (A549/ATCC; Log10 Concentration −4.0): −84%
Percent Growth (A549/ATCC; Log10 Concentration −5.0): −72%
Percent Growth (A549/ATCC; Log10 Concentration −6.0): 87%
Percent Growth (A549/ATCC; Log10 Concentration −7.0): 96%
Percent Growth (A549/ATCC; Log10 Concentration −8.0): 96%
GI50 (A549/ATCC; molar): 1700 nM
TGI (A549/ATCC; molar): 3.51E−6
CC50 (A549/ATCC; read-out: LC50, molar): 7260 nM
Percent Growth (MOLT-4; Log10 Concentration −4.0): −34%
Percent Growth (MOLT-4; Log10 Concentration −5.0): −27%
Percent Growth (MOLT-4; Log10 Concentration −6.0): 2%
Percent Growth (MOLT-4; Log10 Concentration −7.0): 101%
Percent Growth (MOLT-4; Log10 Concentration −8.0): 100%
GI50 (MOLT-4; molar): 330 nM
TGI (MOLT-4; molar): 1.18E−6
CC50 (MOLT-4; read-out: LC50, molar): > 100000 nM
Percent Growth (HCT-116; Log10 Concentration −4.0): −86%
Percent Growth (HCT-116; Log10 Concentration −5.0): −92%
Percent Growth (HCT-116; Log10 Concentration −6.0): −62%
Percent Growth (HCT-116; Log10 Concentration −7.0): 97%
Percent Growth (HCT-116; Log10 Concentration −8.0): 98%
GI50 (HCT-116; molar): 195 nM
TGI (HCT-116; molar): 4.07E−7
CC50 (HCT-116; read-out: LC50, molar): 837 nM
Percent Growth (ACHN; Log10 Concentration −4.0): −78%
Percent Growth (ACHN; Log10 Concentration −5.0): −84%
Percent Growth (ACHN; Log10 Concentration −6.0): −31%
Percent Growth (ACHN; Log10 Concentration −7.0): 100%
Percent Growth (ACHN; Log10 Concentration −8.0): 98%
GI50 (ACHN; molar): 268 nM
TGI (ACHN; molar): 6.62E−7
CC50 (ACHN; read-out: LC50, molar): 2850 nM
Percent Growth (OVCAR-8; Log10 Concentration −4.0): −55%
Percent Growth (OVCAR-8; Log10 Concentration −5.0): −51%
Percent Growth (OVCAR-8; Log10 Concentration −6.0): 6%
Percent Growth (OVCAR-8; Log10 Concentration −7.0): 96%
Percent Growth (OVCAR-8; Log10 Concentration −8.0): 100%
GI50 (OVCAR-8; molar): 326 nM
CC50 (OVCAR-8; read-out: LC50, molar): 6770 nM
Percent Growth (MDA-MB-231/ATCC; Log10 Concentration −4.0): −80%
Percent Growth (MDA-MB-231/ATCC; Log10 Concentration −5.0): −78%
Percent Growth (MDA-MB-231/ATCC; Log10 Concentration −6.0): −47%
Percent Growth (MDA-MB-231/ATCC; Log10 Concentration −7.0): 92%
Percent Growth (MDA-MB-231/ATCC; Log10 Concentration −8.0): 99%
GI50 (MDA-MB-231/ATCC; molar): 200 nM
TGI (MDA-MB-231/ATCC; molar): 4.58E−7
CC50 (MDA-MB-231/ATCC; read-out: LC50, molar): 1240 nM
Percent Growth (SF-539; Log10 Concentration −4.0): −83%
Percent Growth (SF-539; Log10 Concentration −5.0): −91%
Percent Growth (SF-539; Log10 Concentration −6.0): −27%
Percent Growth (SF-539; Log10 Concentration −7.0): 95%
Percent Growth (SF-539; Log10 Concentration −8.0): 89%
GI50 (SF-539; molar): 235 nM
TGI (SF-539; molar): 5.99E−7
CC50 (SF-539; read-out: LC50, molar): 2260 nM
Percent Growth (MDA-MB-435; Log10 Concentration −4.0): −86%
Percent Growth (MDA-MB-435; Log10 Concentration −5.0): −74%
Percent Growth (MDA-MB-435; Log10 Concentration −6.0): −18%
Percent Growth (MDA-MB-435; Log10 Concentration −7.0): 92%
Percent Growth (MDA-MB-435; Log10 Concentration −8.0): 91%
GI50 (MDA-MB-435; molar): 241 nM
TGI (MDA-MB-435; molar): 6.86E−7
CC50 (MDA-MB-435; read-out: LC50, molar): 3740 nM
Percent Growth (HS 578T; Log10 Concentration −4.0): −26%
Percent Growth (HS 578T; Log10 Concentration −5.0): −5%
Percent Growth (HS 578T; Log10 Concentration −6.0): 54%
Percent Growth (HS 578T; Log10 Concentration −7.0): 90%
Percent Growth (HS 578T; Log10 Concentration −8.0): 94%
GI50 (HS 578T; molar): 1170 nM
TGI (HS 578T; molar): 8.25E−6
CC50 (HS 578T; read-out: LC50, molar): > 100000 nM
Percent Growth (SK-MEL-28; Log10 Concentration −4.0): −71%
Percent Growth (SK-MEL-28; Log10 Concentration −5.0): −77%
Percent Growth (SK-MEL-28; Log10 Concentration −6.0): −37%
Percent Growth (SK-MEL-28; Log10 Concentration −7.0): 90%
Percent Growth (SK-MEL-28; Log10 Concentration −8.0): 92%
GI50 (SK-MEL-28; molar): 205 nM
TGI (SK-MEL-28; molar): 5.11E−7
CC50 (SK-MEL-28; read-out: LC50, molar): 2120 nM
Percent Growth (HT29; Log10 Concentration −4.0): −84%
Percent Growth (HT29; Log10 Concentration −5.0): −80%
Percent Growth (HT29; Log10 Concentration −6.0): −33%
Percent Growth (HT29; Log10 Concentration −7.0): 97%
Percent Growth (HT29; Log10 Concentration −8.0): 100%
GI50 (HT29; molar): 228 nM
CC50 (HT29; read-out: LC50, molar): 2270 nM
Percent Growth (BT-549; Log10 Concentration −4.0): −85%
Percent Growth (BT-549; Log10 Concentration −5.0): −80%
Percent Growth (BT-549; Log10 Concentration −6.0): −14%
Percent Growth (BT-549; Log10 Concentration −7.0): 94%
Percent Growth (BT-549; Log10 Concentration −8.0): 94%
GI50 (BT-549; molar): 257 nM
TGI (BT-549; molar): 7.48E−7
CC50 (BT-549; read-out: LC50, molar): 3570 nM
Percent Growth (M14; Log10 Concentration −4.0): −76%
Percent Growth (M14; Log10 Concentration −5.0): −71%
Percent Growth (M14; Log10 Concentration −6.0): −10%
Percent Growth (M14; Log10 Concentration −7.0): 95%
Percent Growth (M14; Log10 Concentration −8.0): 95%
GI50 (M14; molar): 272 nM
TGI (M14; molar): 8.00E−7
CC50 (M14; read-out: LC50, molar): 4530 nM
Percent Growth (NCI-H226; Log10 Concentration −4.0): −57%
Percent Growth (NCI-H226; Log10 Concentration −5.0): −46%
Percent Growth (NCI-H226; Log10 Concentration −6.0): 83%
Percent Growth (NCI-H226; Log10 Concentration −7.0): 89%
Percent Growth (NCI-H226; Log10 Concentration −8.0): 93%
GI50 (NCI-H226; molar): 1810 nM
TGI (NCI-H226; molar): 4.39E−6
Percent Growth (MDA-MB-468; Log10 Concentration −4.0): −70%
Percent Growth (MDA-MB-468; Log10 Concentration −5.0): −81%
Percent Growth (MDA-MB-468; Log10 Concentration −6.0): −43%
Percent Growth (MDA-MB-468; Log10 Concentration −7.0): 86%
Percent Growth (MDA-MB-468; Log10 Concentration −8.0): 100%
GI50 (MDA-MB-468; molar): 190 nM
TGI (MDA-MB-468; molar): 4.62E−7
CC50 (MDA-MB-468; read-out: LC50, molar): 1500 nM
Percent Growth (A498; Log10 Concentration −4.0): −83%
Percent Growth (A498; Log10 Concentration −5.0): −91%
Percent Growth (A498; Log10 Concentration −6.0): 91%
Percent Growth (A498; Log10 Concentration −7.0): 104%
Percent Growth (A498; Log10 Concentration −8.0): 94%
GI50 (A498; molar): 1690 nM
TGI (A498; molar): 3.14E−6
CC50 (A498; read-out: LC50, molar): 5830 nM
Percent Growth (HCT-15; Log10 Concentration −4.0): 83%
Percent Growth (HCT-15; Log10 Concentration −5.0): −90%
Percent Growth (HCT-15; Log10 Concentration −6.0): 16%
Percent Growth (HCT-15; Log10 Concentration −7.0): 90%
Percent Growth (HCT-15; Log10 Concentration −8.0): 91%
GI50 (HCT-15; molar): 346 nM
TGI (HCT-15; molar): 1.41E−6
CC50 (HCT-15; read-out: LC50, molar): 4160 nM
